Measurements reported in US20220017501A1, “MICROBIOCIDAL THIAZOLE DERIVATIVES” (SYNGENTA PARTICIPATIONS AG, priority 2018, published 2022).

What was measured:
[1] = tested on: Mycosphaerella arachidis (Cercospora arachidicola); assay: Mycosphaerella arachidis (Cercospora arachidicola) / liquid culture (early leaf spot); assay type: cell-based; conditions: growth inhibition photometrically 4-5 days after application, read-out: control of Mycosphaerella arachidis
Method: (§1) Example B8: Mycosphaerella Arachidis (Cercospora Arachidicola)/Liquid Culture (Early Leaf Spot) Conidia of the fungus from cryogenic storage are directly mixed into nutrient broth (PDB potato dextrose broth). After placing a (DMSO) solution of test compound into a microtiter plate (96-well format), the nutrient broth containing the fungal spores is added. The test plates are incubated at 24° C. and the inhibition of growth is determined photometrically 4-5 days after application. […] […].23.

[2] = tested on: Magnaporthe grisea (Pyricularia oryzae); assay: whole plant or invertebrate; assay type: in vivo; conditions: foliar, read-out: control of Magnaporthe grisea
[3] = tested on: Mycosphaerella graminicola (Septoria tritici); assay: Mycosphaerella graminicola (Septoria tritici) / liquid culture (Septoria blotch); assay type: cell-based; conditions: Zymoseptoria tritici, growth inhibition photometrically 4-5 days after application, read-out: control of Mycosphaerella graminicola
Method: as §1, with “B16:” for “B8:”, “Graminicola (Septoria Tritici)/Liquid” for “Arachidis (Cercospora Arachidicola)/Liquid”, “(Septoria Blotch)” for “(Early Leaf Spot)”

[4] = tested on: Blumeria graminis f. sp. tritici (Erysiphe graminis f. sp. tritici); assay: Blumeria graminis f. sp. tritici / wheat / leaf disc preventative (powdery mildew on wheat); assay type: in vivo; conditions: foliar, wheat leaf segments, compared to untreated control
Method: Example B4: Blumeria Graminis f. sp. Tritici (Erysiphe Graminis f. sp. Tritici)/Wheat/Leaf Disc Preventative (Powdery Mildew on Wheat) Wheat leaf segments cv. Kanzler are placed on agar in a multiwell plate (24-well format) and sprayed with the formulated test compound diluted in water. The leaf disks are inoculated by shaking powdery mildew infected plants above the test plates 1 day after application. The inoculated leaf disks are incubated at 20° C. and 60% rh under a light regime of 24 h darkness followed by 12 h light/12 h darkness in a climate chamber and the activity of a compound is assessed as percent disease control compared to untreated when an appropriate level of disease damage appears on untreated check leaf segments (6-8 days after application). […].23.

[5] = tested on: Monographella nivalis (Microdochium nivale); assay: Monographella nivalis (Microdochium nivale) / liquid culture (foot rot cereals); assay type: cell-based; conditions: growth inhibition photometrically 4-5 days after application, read-out: control of Monographella nivalis
Method: as §1, with “B7: Monographella Nivalis (Microdochium Nivale)/Liquid” for “B8: Mycosphaerella Arachidis (Cercospora Arachidicola)/Liquid”, “(Foot Rot Cereals)” for “(Early Leaf Spot)”

[6] = tested on: Glomerella lagenarium (Colletotrichum lagenarium); assay: Glomerella lagenarium (Colletotrichum lagenarium) / liquid culture (anthracnose); assay type: cell-based; conditions: Colletotrichum orbiculare, growth inhibition photometrically 3-4 days after application, read-out: control of Glomerella lagenarium
Method: Example B3: Glomerella Lagenarium (Colletotrichum Lagenarium)/Liquid Culture (Anthracnose) Conidia of the fungus from cryogenic storage are directly mixed into nutrient broth (PDB potato dextrose broth). After placing a (DMSO) solution of test compound into a microtiter plate (96-well format), the nutrient broth containing the fungal spores is added. The test plates are incubated at 24° C. and the inhibition of growth is measured photometrically 3-4 days after application.

CCCCCCNC(=O)c1nc(N(C#N)c2cc(F)nc(F)c2)sc1C [I.h.23, 2-[cyano-(2,6-difluoro-4-pyridyl)amino]-N-hexyl-5-methyl-thiazole-4-carboxamide]
≥ 80%: inhibition of growth at 20 ppm [1] | pest or weed control at 200 ppm [2] | inhibition of growth at 20 ppm [3] | pest or weed control at 200 ppm [4] | inhibition of growth at 20 ppm [5] | inhibition of growth at 20 ppm [6]

Cc1sc(N(C#N)c2cc(F)cc(F)c2)nc1C(=O)NC1CCC1(C)C (stereo not drawn) [I.b.08, 2-(N-cyano-3,5-difluoro-anilino)-N-(2,2-dimethylcyclobutyl)-5-methyl-thiazole-4-carboxamide]
≥ 80%: inhibition of growth at 20 ppm [1] | pest or weed control at 200 ppm [2] | inhibition of growth at 20 ppm [3] | pest or weed control at 200 ppm [4] | inhibition of growth at 20 ppm [5] | inhibition of growth at 20 ppm [6]

Cc1sc(N(C#N)c2cc(F)cc(F)c2)nc1C(=O)NC1(C)CCCC1 [I.g.08, 2-(N-cyano-3,5-difluoro-anilino)-5-methyl-N-(1-methylcyclopentyl)thiazole-4-carboxamide]
≥ 80%: inhibition of growth at 20 ppm [1] | pest or weed control at 200 ppm [2] | pest or weed control at 200 ppm [4] | inhibition of growth at 20 ppm [5] | inhibition of growth at 20 ppm [6]

CC1(C)CCC1NC(=O)c1nc(N(C#N)c2cc(F)nc(F)c2)sc1NC=O (stereo not drawn) [I.b.25, 2-[cyano-(2,6-difluoro-4-pyridyl)amino]-N-(2,2-dimethylcyclobutyl)-5-formamido-thiazole-4-carboxamide]
≥ 80%: inhibition of growth at 20 ppm [3] | inhibition of growth at 20 ppm [5] | inhibition of growth at 20 ppm [6]

CCCCCNC(=O)c1nc(N(C#N)c2cc(F)nc(F)c2)sc1C [I.l.23, 2-[cyano-(2,6-difluoro-4-pyridyl)amino]-5-methyl-N-pentyl-thiazole-4-carboxamide]
≥ 80%: inhibition of growth at 20 ppm [1] | pest or weed control at 200 ppm [2] | inhibition of growth at 20 ppm [3] | pest or weed control at 200 ppm [4] | inhibition of growth at 20 ppm [5]

Cc1sc(N(C#N)c2cc(F)nc(F)c2)nc1C(=O)NC(C)c1ccccc1 (stereo not drawn) [I.j.23, 2-[cyano-(2,6-difluoro-4-pyridyl)amino]-5-methyl-N-(1-phenylethyl)thiazole-4-carboxamide]
≥ 80%: pest or weed control at 200 ppm [2] | inhibition of growth at 20 ppm [3] | pest or weed control at 200 ppm [4] | inhibition of growth at 20 ppm [5] | inhibition of growth at 20 ppm [6]

Cc1sc(N(C#N)c2cc(F)nc(F)c2)nc1C(=O)NC1CCC12CCC2 (stereo not drawn) [I.e.23, 2-[cyano-(2,6-difluoro-4-pyridyl)amino]-5-methyl-N-spiro[3.3]heptan-3-yl-thiazole-4-carboxamide]
≥ 80%: inhibition of growth at 20 ppm [1] | pest or weed control at 200 ppm [2] | inhibition of growth at 20 ppm [3] | pest or weed control at 200 ppm [4] | inhibition of growth at 20 ppm [5] | inhibition of growth at 20 ppm [6]

Cc1sc(N(C#N)c2cc(F)nc(F)c2)nc1C(=O)NCc1ccccc1 [I.o.23, N-benzyl-2-[cyano-(2,6-difluoro-4-pyridyl)amino]-5-methyl-thiazole-4-carboxamide]
≥ 80%: inhibition of growth at 20 ppm [1] | pest or weed control at 200 ppm [2] | inhibition of growth at 20 ppm [3] | pest or weed control at 200 ppm [4] | inhibition of growth at 20 ppm [5] | inhibition of growth at 20 ppm [6]

Cc1sc(N(C#N)c2cc(F)nc(F)c2)nc1C(=O)NCC1(CC2CC2)CC1 [I.f.23, 2-[cyano-(2,6-difluoro-4-pyridyl)amino]-N-[[1-(cyclopropylmethyl)cyclopropyl]methyl]-5-methyl-thiazole-4-carboxamide]
≥ 80%: inhibition of growth at 20 ppm [1] | pest or weed control at 200 ppm [2] | inhibition of growth at 20 ppm [3] | pest or weed control at 200 ppm [4] | inhibition of growth at 20 ppm [5] | inhibition of growth at 20 ppm [6]
